{
  "source": "patent US6946453B2",
  "about": "“4-dedimethylaminotracycline derivatives” (CollaGenex Pharmaceuticals, Inc., priority 1998, dated 2005)",
  "test_system": "BALB/c 3T3 (CCL-163) cells",
  "protocol": "The assay used to assess phototoxicity is the so-called 3T3 Phototoxicity Assay. The assay compares the cytotoxicity of a series of doses of a test compound in the presence and absence of UVA/visible light.\nBriefly, serial dilutions of a test compound are prepared, and are incubated with 3T3 cells in two 96-well plates. Following an initial incubation, the cells in one plate, the test cells receiving both the chemical and light, are exposed to UVA/visible light. In the second plate, the test cells receiving only the test chemical were treated the same way, except they are kept in the dark for the same amount of time.\nTwenty-four hours after exposure, the test cells and the control cells are then incubated with neutral red dye. Neutral red dye is used to measure the relative number of living cells in each well. Live cells are stained with the dye while dead cells are not.\nPhototoxicity is measured by the relative toxicity between the doses with and without light exposure following published guidelines.\nStreptomycin sulfate ([…]) and penicillin (100 IU/ml) were added to the medium after the cells were treated with test article in 96-well plates.\nSerial dilutions of the tetracycline derivatives were prepared in DMSO at concentrations 100× to final testing concentration. The COL dilutions in DMSO were then diluted in Hanks' Balanced Salt Solution (HBSS) for application to the cells. The final DMSO concentration was 1% in treated and control cultures. A dose range finding assay is conducted with eight serial dilutions covering a range of 100-0.03 μg/ml in half log steps. Definitive assays are conducted with 6-8 serial dilutions prepared in quarter log steps, centered on the expected 50% toxicity point as determined in the dose range finding assay. One hundred 100 μg/ml was the highest dose recommended to prevent false negative results from UV absorption by the dosing solutions. One dose range finding and at least two definitive trials were performed on each tetracycline derivative and control compound.\nControls: Each assay included both negative (solvent) and positive controls. Twelve wells of negative control cultures were used on each 96-well plate. Chlorpromazine (Sigma Chemicals) was used as the positive control and was prepared and dosed like the test tetracycline derivatives.\nSolar Simulator: A Dermalight SOL 3 solar simulator, equipped with a UVA H1 filter (320-400 nm), was adjusted to the appropriate height. Measurement of energy through the lid of a 96-well microtiter plate was carried out using a calibrated UV radiometer UVA sensor. Simulator height was adjusted to deliver 1.7±0.1 mW/cm^2 of UVA energy (resulting dose was 1 J/cm^2 per 10 minutes of exposure).\nPhototoxicity Assay: Duplicate plates were prepared for each test material by seeding 10^4 3T3 cells per well in complete medium 24 hours before treatment. Prior to treatment, the medium was removed, and the cells washed once with 125 μl of prewarmed HBSS. Fifty μl of prewarmed HBSS were added to each well. Fifty μl of each test article dilution were added to the appropriate wells and the plates returned to the incubator for approximately one hour. Six wells were treated with each dose of test or control article on each plate. Following the 1 hr incubation, the plates designated for the photo irradiation were exposed (with the lid on) to 1.7±0.1 mW/cm^2 UVA light for 50±2 minutes at room temperature resulting in an irradiation dose of 5 J/cm^2. Duplicate plates, designated for the measurement of cytotoxicity without light, were kept in the dark room temperature for 50±2 minutes. After the 50 minute exposure period (with or without light) the test article dilutions were decanted from the plates and the cells washed once with 125 μl of HBSS. One hundred μl of medium were added to all wells and the cells incubated as above for 24±1 hours.",
  "note": "Read-outs that look alike come from different tables or passages of the source.",
  "data": [
    {"compound": "NC(=O)C1=C(O)C[C@@H]2C[C@@H]3Cc4cccc(O)c4C(=O)C3=C(O)[C@]2(O)C1=O", "note": "[COL 3, 6-demethyl-6-deoxy-4-dedimethylaminotetracycline]", "values": [
      {"measurement": "PIF 2 (photoirritancy factor, IC50(-UVA)/IC50(+UVA), OECD draft guideline 432)", "result": 84.72}
    ]},
    {"compound": "CC1c2cccc(O)c2C(=O)C2=C(O)C3(O)C(=O)C(C(N)=O)=C(O)CC3C(O)C21", "note": "(stereo not shown) [COL 8, 4-dedimethylaminodoxycycline]", "values": [
      {"measurement": "PIF 2 (photoirritancy factor, IC50(-UVA)/IC50(+UVA), OECD draft guideline 432)", "result": 82.61}
    ]},
    {"compound": "CN(C)c1ccc(O)c2c1CC1CC3CC(O)=C(C(N)=O)C(=O)C3(O)C(O)=C1C2=O", "note": "(stereo not shown) [COL 10, 4-dedimethylaminominocycline]", "values": [
      {"measurement": "PIF 2 (photoirritancy factor, IC50(-UVA)/IC50(+UVA), OECD draft guideline 432)", "result": 2.04}
    ]},
    {"compound": "NC(=O)C1=C(O)CC2CC3Cc4c([N+](=O)[O-])ccc(O)c4C(=O)C3=C(O)C2(O)C1=O", "note": "(stereo not shown) [COL 302, 7-nitro-6-demethyl-6-deoxy-4-dedimethylaminotetracycline]", "values": [
      {"measurement": "PIF 2 (photoirritancy factor, IC50(-UVA)/IC50(+UVA), OECD draft guideline 432)", "result": 23.32}
    ]},
    {"compound": "NC(=O)C1=C(O)CC2CC3Cc4ccc([N+](=O)[O-])c(O)c4C(=O)C3=C(O)C2(O)C1=O", "note": "(stereo not shown) [COL 303, 9-nitro-6-demethyl-6-deoxy-4-dedimethylaminotetracycline]", "values": [
      {"measurement": "PIF 2 (photoirritancy factor, IC50(-UVA)/IC50(+UVA), OECD draft guideline 432)", "result": 13.82}
    ]},
    {"compound": "CN(C)c1ccc2c(c1O)C(=O)C1=C(O)C3(O)C(=O)C(C(N)=O)=C(O)CC3CC1C2", "note": "(stereo not shown) [COL 306, 9-dimethylamino-6-demethyl-6-deoxy-4-dedimethylaminotetracycline]", "values": [
      {"measurement": "PIF 2 (photoirritancy factor, IC50(-UVA)/IC50(+UVA), OECD draft guideline 432)", "result": 1.56}
    ]},
    {"compound": "CN(C)CC(=O)Nc1ccc2c(c1O)C(=O)C1=C(O)C3(O)C(=O)C(C(N)=O)=C(O)CC3CC1C2", "note": "(stereo not shown) [COL 309, 9-dimethylaminoacetamido-6-demethyl-6-deoxy-4-dedimethylaminotetracycline]", "values": [
      {"measurement": "PIF 2 (photoirritancy factor, IC50(-UVA)/IC50(+UVA), OECD draft guideline 432)", "result": 12.87}
    ]},
    {"compound": "O=C(NCN1CCCC1)C1=C(O)CC2CC3Cc4cccc(O)c4C(=O)C3=C(O)C2(O)C1=O", "note": "(stereo not shown) [COL 312, 2-CONHCH2-pyrrolidin-1-yl-6-demethyl-6-deoxy-4-dedimethylaminotetracycline]", "values": [
      {"measurement": "PIF 2 (photoirritancy factor, IC50(-UVA)/IC50(+UVA), OECD draft guideline 432)", "result": 75.11}
    ]},
    {"compound": "O=C(NCN1CCCCC1)C1=C(O)CC2CC3Cc4cccc(O)c4C(=O)C3=C(O)C2(O)C1=O", "note": "(stereo not shown) [COL 313, 2-CONHCH2-piperidin-1-yl-6-demethyl-6-deoxy-4-dedimethylaminotetracycline]", "values": [
      {"measurement": "PIF 2 (photoirritancy factor, IC50(-UVA)/IC50(+UVA), OECD draft guideline 432)", "result": 58.22}
    ]},
    {"compound": "O=C(NCN1CCOCC1)C1=C(O)CC2CC3Cc4cccc(O)c4C(=O)C3=C(O)C2(O)C1=O", "note": "(stereo not shown) [COL 314, 2-CONHCH2-morpholin-1-yl-6-demethyl-6-deoxy-4-dedimethylaminotetracycline]", "values": [
      {"measurement": "PIF 2 (photoirritancy factor, IC50(-UVA)/IC50(+UVA), OECD draft guideline 432)", "result": 89.48}
    ]},
    {"compound": "O=C(NCN1CCNCC1)C1=C(O)CC2CC3Cc4cccc(O)c4C(=O)C3=C(O)C2(O)C1=O", "note": "(stereo not shown) [COL 315, 2-CONHCH2-piperazin-1-yl-6-demethyl-6-deoxy-4-dedimethylaminotetracycline]", "values": [
      {"measurement": "PIF 2 (photoirritancy factor, IC50(-UVA)/IC50(+UVA), OECD draft guideline 432)", "result": 35.30}
    ]},
    {"compound": "CC1c2cccc(O)c2C(=O)C2=C(O)C3(O)C(=O)C(C(=O)NCN4CCCC4)=C(O)CC3C(O)C21", "note": "(stereo not shown) [COL 807, 2-CONHCH2-pyrrolidin-1-yl-4-dedimethylaminodoxycycline]", "values": [
      {"measurement": "PIF 1 (photoirritancy factor, IC50(-UVA)/IC50(+UVA), earlier software)", "result": 40.4}
    ]},
    {"compound": "CN(C)c1cc([N+](=O)[O-])c(O)c2c1CC1CC3CC(O)=C(C(N)=O)C(=O)C3(O)C(O)=C1C2=O", "note": "(stereo not shown) [COL 1002, 9-nitro-4-dedimethylaminominocycline]", "values": [
      {"measurement": "PIF 2 (photoirritancy factor, IC50(-UVA)/IC50(+UVA), OECD draft guideline 432)", "result": 1.35}
    ]},
    {"compound": "CN(C)CCCN1c2ccccc2Sc2ccc(Cl)cc21", "note": "[Chlorpromazine, reference compound]", "values": [
      {"measurement": "PIF 2 (photoirritancy factor, IC50(-UVA)/IC50(+UVA), OECD draft guideline 432)", "setting": "mouse, 110 min", "result": 40.38}
    ]},
    {"compound": "C[C@H]1c2cccc(O)c2C(=O)C2=C(O)[C@]3(O)C(=O)C(C(N)=O)=C(O)[C@@H](N(C)C)[C@@H]3[C@@H](O)[C@@H]21", "note": "[Doxycycline, doxycycline, reference compound]", "values": [
      {"measurement": "PIF 2 (photoirritancy factor, IC50(-UVA)/IC50(+UVA), OECD draft guideline 432)", "setting": "mouse, 110 min", "result": 26.71}
    ]},
    {"compound": "COL 2", "values": [
      {"measurement": "MPE (mean photo effect)", "setting": "BALB/c 3T3 cells, cytotoxicity with vs without 5 J/cm^2 UVA, neutral red, OECD draft guideline 432 software", "result": 0.005}
    ]}
  ]
}
